Key:
[1] = target: cGMP-inhibited 3',5'-cyclic phosphodiesterase 3A (Homo sapiens, UniProt Q14432); format: functional
[2] = target: T1, Prostaglandin G/H synthase 1 (Homo sapiens, UniProt P23219); format: functional
D(1A) dopamine receptor = D(1A) dopamine receptor (Homo sapiens, UniProt P21728)
Acetylcholinesterase = Acetylcholinesterase (Homo sapiens, UniProt P22303); format: functional
Thromboxane A2 receptor = target: T2, Thromboxane A2 receptor (Homo sapiens, UniProt P21731); format: functional, cell-based
T2 sequence (P21731 whole entry): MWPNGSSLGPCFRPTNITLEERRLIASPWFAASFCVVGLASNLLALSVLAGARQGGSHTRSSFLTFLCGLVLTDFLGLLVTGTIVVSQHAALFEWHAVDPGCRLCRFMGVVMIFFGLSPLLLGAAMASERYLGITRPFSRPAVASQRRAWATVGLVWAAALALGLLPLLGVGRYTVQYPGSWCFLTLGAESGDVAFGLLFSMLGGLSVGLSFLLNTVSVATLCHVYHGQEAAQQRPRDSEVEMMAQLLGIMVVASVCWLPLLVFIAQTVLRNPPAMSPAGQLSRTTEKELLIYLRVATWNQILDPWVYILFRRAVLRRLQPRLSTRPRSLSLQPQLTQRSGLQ

[3] = target: 3',5'-cyclic-AMP phosphodiesterase 4A (Homo sapiens, UniProt P27815); format: functional
[4] = target: T3, Alpha-1A adrenergic receptor (Homo sapiens, UniProt P35348); format: functional, cell-based
T3 sequence (P35348 whole entry): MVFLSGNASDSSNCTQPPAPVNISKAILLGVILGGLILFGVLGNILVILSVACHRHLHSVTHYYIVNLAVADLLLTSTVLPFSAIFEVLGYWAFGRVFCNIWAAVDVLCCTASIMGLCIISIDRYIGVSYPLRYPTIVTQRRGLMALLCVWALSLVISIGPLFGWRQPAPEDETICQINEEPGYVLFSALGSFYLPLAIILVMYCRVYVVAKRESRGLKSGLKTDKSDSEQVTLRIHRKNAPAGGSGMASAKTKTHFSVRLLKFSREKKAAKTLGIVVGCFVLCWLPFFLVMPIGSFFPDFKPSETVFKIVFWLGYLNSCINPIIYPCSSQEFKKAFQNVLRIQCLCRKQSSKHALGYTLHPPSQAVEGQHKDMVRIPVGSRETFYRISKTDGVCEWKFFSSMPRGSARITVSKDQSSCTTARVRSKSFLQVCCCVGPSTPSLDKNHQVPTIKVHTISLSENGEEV

[5] = target: Voltage-gated inwardly rectifying potassium channel KCNH2 (Homo sapiens, UniProt Q12809); format: functional
Mu-type opioid receptor = Mu-type opioid receptor (Homo sapiens, UniProt P35372)
Progesterone receptor = target: T4, Progesterone receptor (Homo sapiens, UniProt P06401)
T4 sequence (P06401 whole entry): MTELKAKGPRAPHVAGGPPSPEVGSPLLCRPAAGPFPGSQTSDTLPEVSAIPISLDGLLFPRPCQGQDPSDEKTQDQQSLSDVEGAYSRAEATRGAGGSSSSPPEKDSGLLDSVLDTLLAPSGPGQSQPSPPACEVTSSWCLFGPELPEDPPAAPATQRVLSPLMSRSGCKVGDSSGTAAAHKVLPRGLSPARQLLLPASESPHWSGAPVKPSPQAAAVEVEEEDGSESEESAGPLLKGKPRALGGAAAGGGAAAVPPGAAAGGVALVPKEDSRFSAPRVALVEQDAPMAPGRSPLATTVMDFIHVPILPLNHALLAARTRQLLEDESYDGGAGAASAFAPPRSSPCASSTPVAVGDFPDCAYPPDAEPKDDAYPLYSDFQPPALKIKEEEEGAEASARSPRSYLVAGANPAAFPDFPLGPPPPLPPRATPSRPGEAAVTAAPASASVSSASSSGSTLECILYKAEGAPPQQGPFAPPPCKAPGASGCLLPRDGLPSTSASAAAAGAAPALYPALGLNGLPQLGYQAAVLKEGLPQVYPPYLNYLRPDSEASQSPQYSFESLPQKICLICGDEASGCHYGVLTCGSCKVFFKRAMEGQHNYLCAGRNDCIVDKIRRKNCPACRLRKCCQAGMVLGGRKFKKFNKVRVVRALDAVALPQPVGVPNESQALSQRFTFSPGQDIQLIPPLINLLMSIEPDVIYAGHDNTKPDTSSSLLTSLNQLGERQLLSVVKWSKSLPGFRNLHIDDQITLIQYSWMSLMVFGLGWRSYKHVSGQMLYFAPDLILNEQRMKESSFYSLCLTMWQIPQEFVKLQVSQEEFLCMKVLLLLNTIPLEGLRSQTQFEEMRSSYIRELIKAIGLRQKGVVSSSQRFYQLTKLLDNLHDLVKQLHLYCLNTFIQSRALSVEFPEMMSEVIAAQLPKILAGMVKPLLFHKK

Prothrombin = Prothrombin (Homo sapiens, UniProt P00734); format: functional
[6] = target: T5, Amine oxidase [flavin-containing] A (Homo sapiens, UniProt P21397); format: functional
T5 sequence (P21397 whole entry): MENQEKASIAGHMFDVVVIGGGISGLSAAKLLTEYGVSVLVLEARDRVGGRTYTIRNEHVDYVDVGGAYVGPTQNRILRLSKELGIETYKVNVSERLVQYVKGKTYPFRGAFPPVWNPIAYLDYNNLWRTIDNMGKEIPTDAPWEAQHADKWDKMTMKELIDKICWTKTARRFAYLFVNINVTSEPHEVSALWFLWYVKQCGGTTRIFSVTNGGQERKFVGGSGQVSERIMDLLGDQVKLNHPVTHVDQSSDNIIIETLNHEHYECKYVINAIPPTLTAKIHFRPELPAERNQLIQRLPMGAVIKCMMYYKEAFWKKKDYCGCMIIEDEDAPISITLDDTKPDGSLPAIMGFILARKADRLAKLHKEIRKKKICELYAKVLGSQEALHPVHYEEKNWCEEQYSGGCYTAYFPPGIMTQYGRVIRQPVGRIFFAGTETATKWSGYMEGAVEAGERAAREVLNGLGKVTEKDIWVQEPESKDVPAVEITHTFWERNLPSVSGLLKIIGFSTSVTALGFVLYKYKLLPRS

D(3) dopamine receptor = D(3) dopamine receptor (Homo sapiens, UniProt P35462)
[7] = target: T1, Prostaglandin G/H synthase 1; format: functional; remark: listed apart in the source
[8] = target: Sodium-dependent dopamine transporter (Homo sapiens, UniProt Q01959)
Further: assay procedure not described here.

Chain of Voltage-gated inwardly rectifying potassium channel KCNH2 (Q12809 whole entry): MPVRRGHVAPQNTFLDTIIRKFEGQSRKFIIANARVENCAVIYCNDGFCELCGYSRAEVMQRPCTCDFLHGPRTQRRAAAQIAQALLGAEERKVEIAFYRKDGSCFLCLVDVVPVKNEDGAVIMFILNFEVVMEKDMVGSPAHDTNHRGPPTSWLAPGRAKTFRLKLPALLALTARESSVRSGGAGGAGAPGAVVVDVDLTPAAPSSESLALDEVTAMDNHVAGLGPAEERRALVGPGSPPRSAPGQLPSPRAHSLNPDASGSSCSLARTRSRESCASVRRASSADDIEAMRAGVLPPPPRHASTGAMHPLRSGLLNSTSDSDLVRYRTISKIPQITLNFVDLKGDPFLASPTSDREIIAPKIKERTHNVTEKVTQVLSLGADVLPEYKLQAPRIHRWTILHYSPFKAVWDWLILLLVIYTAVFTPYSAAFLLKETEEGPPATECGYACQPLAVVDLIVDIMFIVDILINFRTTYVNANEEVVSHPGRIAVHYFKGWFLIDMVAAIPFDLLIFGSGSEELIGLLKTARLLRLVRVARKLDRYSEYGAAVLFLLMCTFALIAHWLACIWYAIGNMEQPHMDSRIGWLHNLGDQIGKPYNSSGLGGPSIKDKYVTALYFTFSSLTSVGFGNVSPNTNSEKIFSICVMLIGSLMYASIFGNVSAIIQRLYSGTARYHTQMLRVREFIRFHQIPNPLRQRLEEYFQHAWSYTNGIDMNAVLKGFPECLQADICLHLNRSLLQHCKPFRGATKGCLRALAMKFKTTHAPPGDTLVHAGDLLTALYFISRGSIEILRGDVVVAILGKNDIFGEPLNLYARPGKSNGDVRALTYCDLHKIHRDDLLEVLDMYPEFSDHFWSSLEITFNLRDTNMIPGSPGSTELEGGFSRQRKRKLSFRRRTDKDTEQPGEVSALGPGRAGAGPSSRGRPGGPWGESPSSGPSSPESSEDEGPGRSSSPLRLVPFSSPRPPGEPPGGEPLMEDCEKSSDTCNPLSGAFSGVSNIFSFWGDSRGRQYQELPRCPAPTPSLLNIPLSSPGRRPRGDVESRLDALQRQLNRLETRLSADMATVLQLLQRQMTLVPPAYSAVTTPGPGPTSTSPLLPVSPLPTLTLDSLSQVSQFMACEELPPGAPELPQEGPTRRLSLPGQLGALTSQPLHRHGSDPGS
Chain of cGMP-inhibited 3',5'-cyclic phosphodiesterase 3A (Q14432 whole entry): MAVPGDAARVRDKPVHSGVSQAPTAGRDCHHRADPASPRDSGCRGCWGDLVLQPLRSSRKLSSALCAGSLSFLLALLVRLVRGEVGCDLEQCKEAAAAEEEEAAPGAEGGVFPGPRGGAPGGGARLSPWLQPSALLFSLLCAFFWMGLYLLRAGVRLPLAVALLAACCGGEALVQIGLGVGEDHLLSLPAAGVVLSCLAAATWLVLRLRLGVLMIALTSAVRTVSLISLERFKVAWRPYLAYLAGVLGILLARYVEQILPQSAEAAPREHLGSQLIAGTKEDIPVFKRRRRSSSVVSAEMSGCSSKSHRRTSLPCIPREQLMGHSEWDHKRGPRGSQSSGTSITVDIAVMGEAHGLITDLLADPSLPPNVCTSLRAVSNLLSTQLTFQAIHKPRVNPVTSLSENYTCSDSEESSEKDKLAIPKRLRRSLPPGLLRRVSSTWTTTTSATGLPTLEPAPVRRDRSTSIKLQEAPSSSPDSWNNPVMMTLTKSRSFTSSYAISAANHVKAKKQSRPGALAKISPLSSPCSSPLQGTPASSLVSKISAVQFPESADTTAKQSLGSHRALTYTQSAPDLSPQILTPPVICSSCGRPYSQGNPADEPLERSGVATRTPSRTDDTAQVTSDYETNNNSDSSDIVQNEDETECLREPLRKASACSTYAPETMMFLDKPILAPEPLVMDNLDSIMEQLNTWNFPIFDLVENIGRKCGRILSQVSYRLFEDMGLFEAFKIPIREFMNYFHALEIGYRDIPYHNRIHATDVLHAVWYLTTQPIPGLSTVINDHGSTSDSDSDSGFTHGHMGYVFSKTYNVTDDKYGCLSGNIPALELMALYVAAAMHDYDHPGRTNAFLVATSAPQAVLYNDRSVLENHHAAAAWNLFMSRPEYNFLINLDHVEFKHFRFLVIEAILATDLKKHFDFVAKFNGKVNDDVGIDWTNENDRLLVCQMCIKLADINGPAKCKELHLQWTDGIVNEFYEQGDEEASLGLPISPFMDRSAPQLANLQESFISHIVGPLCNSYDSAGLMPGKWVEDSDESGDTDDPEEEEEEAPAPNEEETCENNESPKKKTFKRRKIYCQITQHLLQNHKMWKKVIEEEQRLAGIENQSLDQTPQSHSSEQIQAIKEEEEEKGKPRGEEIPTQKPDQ
T1 sequence (P23219 whole entry): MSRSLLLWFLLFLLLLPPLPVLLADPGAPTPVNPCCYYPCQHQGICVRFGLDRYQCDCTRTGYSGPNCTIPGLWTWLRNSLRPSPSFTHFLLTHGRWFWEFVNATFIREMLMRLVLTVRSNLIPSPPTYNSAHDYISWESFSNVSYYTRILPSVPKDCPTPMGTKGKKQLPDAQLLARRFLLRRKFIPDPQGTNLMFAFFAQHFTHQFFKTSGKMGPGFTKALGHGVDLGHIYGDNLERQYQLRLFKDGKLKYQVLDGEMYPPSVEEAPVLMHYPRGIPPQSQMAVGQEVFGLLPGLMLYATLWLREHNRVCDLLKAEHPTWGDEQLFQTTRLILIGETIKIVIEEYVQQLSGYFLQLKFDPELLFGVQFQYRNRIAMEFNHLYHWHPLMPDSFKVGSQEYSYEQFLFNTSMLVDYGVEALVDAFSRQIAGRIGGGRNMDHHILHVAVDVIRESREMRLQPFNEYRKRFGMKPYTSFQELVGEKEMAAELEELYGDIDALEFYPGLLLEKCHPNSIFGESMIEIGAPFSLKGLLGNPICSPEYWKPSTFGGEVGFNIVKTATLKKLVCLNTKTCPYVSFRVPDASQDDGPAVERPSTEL
Chain of Mu-type opioid receptor (P35372 whole entry): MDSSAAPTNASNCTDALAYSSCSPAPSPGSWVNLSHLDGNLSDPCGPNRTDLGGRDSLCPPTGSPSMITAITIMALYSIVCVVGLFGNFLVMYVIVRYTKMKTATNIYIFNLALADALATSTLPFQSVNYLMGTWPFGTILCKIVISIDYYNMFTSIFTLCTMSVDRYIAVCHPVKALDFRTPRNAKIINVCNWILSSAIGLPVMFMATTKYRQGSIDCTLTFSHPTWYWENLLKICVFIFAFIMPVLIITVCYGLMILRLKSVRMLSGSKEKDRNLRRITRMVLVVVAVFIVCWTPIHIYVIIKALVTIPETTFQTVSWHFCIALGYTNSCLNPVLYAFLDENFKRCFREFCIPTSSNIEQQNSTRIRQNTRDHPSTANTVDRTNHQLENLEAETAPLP
Chain of Sodium-dependent dopamine transporter (Q01959 whole entry): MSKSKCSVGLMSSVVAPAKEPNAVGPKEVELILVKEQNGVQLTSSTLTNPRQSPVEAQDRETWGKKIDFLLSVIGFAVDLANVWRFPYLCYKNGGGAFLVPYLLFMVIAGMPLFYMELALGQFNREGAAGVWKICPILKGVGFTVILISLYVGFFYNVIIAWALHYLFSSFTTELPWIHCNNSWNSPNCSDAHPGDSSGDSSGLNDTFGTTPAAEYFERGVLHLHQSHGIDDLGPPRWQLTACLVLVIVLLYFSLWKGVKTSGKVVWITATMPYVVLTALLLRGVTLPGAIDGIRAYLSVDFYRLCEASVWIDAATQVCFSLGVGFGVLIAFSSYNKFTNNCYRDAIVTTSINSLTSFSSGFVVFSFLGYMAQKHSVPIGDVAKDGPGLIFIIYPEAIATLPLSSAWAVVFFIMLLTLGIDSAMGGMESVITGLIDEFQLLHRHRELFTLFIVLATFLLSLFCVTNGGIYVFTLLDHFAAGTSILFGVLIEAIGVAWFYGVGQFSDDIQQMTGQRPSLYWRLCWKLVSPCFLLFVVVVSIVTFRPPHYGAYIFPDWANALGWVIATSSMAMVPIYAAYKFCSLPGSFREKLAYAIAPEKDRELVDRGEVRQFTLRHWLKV
Chain of 3',5'-cyclic-AMP phosphodiesterase 4A (P27815 whole entry): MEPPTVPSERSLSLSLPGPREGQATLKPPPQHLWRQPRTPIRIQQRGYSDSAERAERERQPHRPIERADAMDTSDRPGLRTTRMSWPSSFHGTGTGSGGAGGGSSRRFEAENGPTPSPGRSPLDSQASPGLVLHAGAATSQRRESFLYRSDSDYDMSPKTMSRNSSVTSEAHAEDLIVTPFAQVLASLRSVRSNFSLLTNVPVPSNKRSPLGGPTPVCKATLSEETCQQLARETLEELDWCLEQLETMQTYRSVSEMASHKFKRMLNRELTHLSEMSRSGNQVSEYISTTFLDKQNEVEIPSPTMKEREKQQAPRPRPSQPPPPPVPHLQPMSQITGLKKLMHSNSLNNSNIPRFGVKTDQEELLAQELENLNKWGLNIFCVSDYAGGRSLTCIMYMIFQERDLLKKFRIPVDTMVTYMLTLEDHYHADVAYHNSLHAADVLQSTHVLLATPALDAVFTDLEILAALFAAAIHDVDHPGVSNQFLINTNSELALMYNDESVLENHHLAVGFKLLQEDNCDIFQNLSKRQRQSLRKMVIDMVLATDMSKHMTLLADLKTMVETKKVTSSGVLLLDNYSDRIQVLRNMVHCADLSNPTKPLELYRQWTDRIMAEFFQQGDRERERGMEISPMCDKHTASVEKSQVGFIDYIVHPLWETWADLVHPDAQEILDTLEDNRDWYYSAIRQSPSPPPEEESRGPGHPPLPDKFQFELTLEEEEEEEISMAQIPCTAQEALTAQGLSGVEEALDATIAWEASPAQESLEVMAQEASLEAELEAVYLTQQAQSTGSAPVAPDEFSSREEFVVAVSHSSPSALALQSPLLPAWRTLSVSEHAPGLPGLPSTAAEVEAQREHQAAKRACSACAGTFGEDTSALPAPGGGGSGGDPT

With `O=C(O)Cc1ccccc1Oc1ccc(Cl)cc1Cl` [FENCLOFENAC] the AC50 [1] was over 30 µM, the AC50 [2] was over 30 µM and the AC50 (D(1A) dopamine receptor) was over 30 µM. For the same molecule, the AC50 (Acetylcholinesterase) was over 30 µM, the AC50 (Thromboxane A2 receptor) was over 30 µM and the AC50 [3] was over 30 µM. For the same molecule, the AC50 [4] was over 30 µM, the AC50 [5] was over 30 µM and the AC50 (Mu-type opioid receptor) was over 30 µM. It also gave an AC50 (Progesterone receptor) of over 30 µM, an AC50 (Prothrombin) of over 30 µM and an AC50 [6] of over 30 µM. For the same molecule, the AC50 (D(3) dopamine receptor) was over 30 µM, the AC50 [7] was over 30 µM and the AC50 [8] was over 30 µM.
`CC(C(=O)O)c1cccc(Oc2ccccc2)c1` (stereo not given) [FENOPROFEN] gave an AC50 [1] of over 30 µM, an AC50 [2] of 1.52 µM and an AC50 (D(1A) dopamine receptor) of over 30 µM. For the same molecule, the AC50 (Acetylcholinesterase) was over 30 µM, the AC50 (Thromboxane A2 receptor) was over 30 µM and the AC50 [3] was over 30 µM. It also gave an AC50 [4] of over 30 µM, an AC50 [5] of over 30 µM and an AC50 (Mu-type opioid receptor) of over 30 µM. It also gave an AC50 (Progesterone receptor) of over 30 µM, an AC50 (Prothrombin) of over 30 µM and an AC50 [6] of over 30 µM. For the same molecule, the AC50 (D(3) dopamine receptor) was over 30 µM, the AC50 [7] was 13.5 µM and the AC50 [8] was over 30 µM.
Molecule `CC1(C)O[C@@H]2C[C@H]3[C@@H]4C[C@H](F)C5=CC(=O)C=C[C@]5(C)[C@@]4(F)[C@@H](O)C[C@]3(C)[C@]2(C(=O)CO)O1` [FLUOCINOLONE ACETONIDE] has an AC50 [1] of over 30 µM, an AC50 [2] of over 30 µM and an AC50 (D(1A) dopamine receptor) of over 30 µM. It also gave an AC50 (Acetylcholinesterase) of over 30 µM, an AC50 (Thromboxane A2 receptor) of over 30 µM and an AC50 [3] of over 30 µM. It also gave an AC50 [4] of over 30 µM, an AC50 [5] of over 30 µM and an AC50 (Mu-type opioid receptor) of over 30 µM. For the same molecule, the AC50 (Progesterone receptor) was 0.0107 µM, the AC50 (Prothrombin) was over 30 µM and the AC50 [6] was over 30 µM. It also gave an AC50 (D(3) dopamine receptor) of over 30 µM, an AC50 [7] of over 30 µM and an AC50 [8] of over 30 µM.
In the case of `O=C(O)P(=O)(O)O` [FOSCARNET], the AC50 [1] is reported as over 30 µM, the AC50 [2] is reported as over 30 µM and the AC50 (D(1A) dopamine receptor) is reported as over 30 µM. For the same molecule, the AC50 (Acetylcholinesterase) was over 30 µM, the AC50 (Thromboxane A2 receptor) was over 30 µM and the AC50 [3] was over 30 µM. The AC50 [4] was over 30 µM, the AC50 [5] was over 30 µM and the AC50 (Mu-type opioid receptor) was over 30 µM. The AC50 (Progesterone receptor) was over 30 µM, the AC50 (Prothrombin) was over 30 µM and the AC50 [6] was over 30 µM. It also gave an AC50 (D(3) dopamine receptor) of over 30 µM, an AC50 [7] of over 30 µM and an AC50 [8] of over 30 µM.
`Cc1ccc(C)c(OCCCC(C)(C)C(=O)O)c1` [GEMFIBROZIL] gave an AC50 [1] of over 30 µM, an AC50 [2] of over 30 µM and an AC50 (D(1A) dopamine receptor) of over 30 µM. It also gave an AC50 (Acetylcholinesterase) of over 30 µM, an AC50 (Thromboxane A2 receptor) of over 30 µM and an AC50 [3] of over 30 µM. For the same molecule, the AC50 [4] was over 30 µM, the AC50 [5] was over 30 µM and the AC50 (Mu-type opioid receptor) was over 30 µM. It also gave an AC50 (Progesterone receptor) of over 30 µM, an AC50 (Prothrombin) of over 30 µM and an AC50 [6] of over 30 µM. It also gave an AC50 (D(3) dopamine receptor) of over 30 µM, an AC50 [7] of over 30 µM and an AC50 [8] of over 30 µM.
`COc1ccccc1OC1(C)OC(=O)c2ccccc2O1` (stereo not given) [GUAIMESAL] was tested, and the AC50 [1] was over 30 µM, the AC50 [2] was over 30 µM and the AC50 (D(1A) dopamine receptor) was over 30 µM. The AC50 (Acetylcholinesterase) was over 30 µM, the AC50 (Thromboxane A2 receptor) was over 30 µM and the AC50 [3] was over 30 µM. For the same molecule, the AC50 [4] was over 30 µM, the AC50 [5] was over 30 µM and the AC50 (Mu-type opioid receptor) was over 30 µM. It also gave an AC50 (Progesterone receptor) of over 30 µM, an AC50 (Prothrombin) of over 30 µM and an AC50 [6] of over 30 µM. The AC50 (D(3) dopamine receptor) was over 30 µM, the AC50 [7] was over 30 µM and the AC50 [8] was over 30 µM.

— ChEMBL document CHEMBL5291721, “A preclinical secondary pharmacology resource illuminates target-adverse drug reaction associations of marketed drugs” (Nat Commun, 2023)
